Test results taken from patent publication US6914045B2, “Glycopeptide antibiotics” (Wyeth Holdings Corporation, priority 2001, dated 2005).
In brackets after ≈: the same amount, converted by molar mass.

Tests used:
Assay in all cases: in vitro antibacterial evaluation, MIC by broth dilution
Assay type in all cases: cell-based
Enterococcus sp. = conditions: broth dilution, 18 hours at 35° C.; for MIC Enterococcus faecalis (ATCC 29212): strain ATCC 29212; for MIC Enterococcus faecalis (GC 2242): strain GC 2242; for MIC Enterococcus faecium (GC 2243): strain GC 2243; for MIC Enterococcus faecalis (GC 2691): strain GC 2691; for MIC Enterococcus faecalis (GC 3059): strain GC 3059; for MIC Enterococcus faecalis (GC 4552): strain GC 4552; for MIC Enterococcus faecalis (GC 4553): strain GC 4553; for MIC Enterococcus faecalis (GC 4554): strain GC 4554; for MIC Enterococcus faecium (GC 4556): strain GC 4556; for MIC Enterococcus faecium (GC 4557): strain GC 4557; for MIC Enterococcus avium (GC 4558): strain GC 4558; for MIC Enterococcus faecalis (GC 6189): strain GC 6189
Method in brief: (§1)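 Following National Committee for Clinical Laboratory Standards recommendations (M7-A2), susceptibility was measured by dilution in Muller-Hinton II […]. Bacteria were seeded at 5×10^5 CFU/mL against compound concentrations from 64 down to 0.06 μg/mL.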

Escherichia coli = test system: Escherichia coli
Method in brief: as §1

Staphylococcus sp. = conditions: broth dilution, 18 hours at 35° C.; for MIC Staphylococcus aureus (GC 1131): strain GC 1131
Method in brief: as §1

Streptococcus sp. = conditions: broth dilution, 18 hours at 35° C.; for MIC Streptococcus pneumoniae (ATCC 6301): strain ATCC 6301; for MIC Streptococcus pneumoniae (GC 1894): strain GC 1894; for MIC Streptococcus pyogenes (GC 4563): strain GC 4563; for MIC Streptococcus agalactiae (GC 4564): strain GC 4564; for MIC Streptococcus pneumoniae (GC 4565): strain GC 4565
Method in brief: as §1

COc1cc(C2OCC3OC(OC4C(CO)OC(Oc5ccc(CC6NC(=O)C(C(C)c7ccccc7)NC(=O)CNC(=O)C(CO)NC(=O)C(C(O)C7CNC(=N)N7C7OC(CO)C(O)C(O)C7O)NC(=O)C(C(O)C7CNC(=N)N7)NC6=O)cc5)C(O)C4O)C(O)C(O)C3O2)cc([N+](=O)[O-])c1O (centres unmarked) [Example 169]
MIC Enterococcus faecalis (ATCC 29212) (Enterococcus sp.; inoculum 5×10^5 CFU/mL): >64 µg/mL | MIC Enterococcus faecalis (GC 2242) (Enterococcus sp.; inoculum 5×10^5 CFU/mL): > 64 µg/mL | MIC Enterococcus faecium (GC 2243) (Enterococcus sp.; inoculum 5×10^5 CFU/mL): >64 µg/mL | MIC Enterococcus faecalis (GC 2691) (Enterococcus sp.; inoculum 5×10^5 CFU/mL): >64 µg/mL | MIC Enterococcus faecalis (GC 3059) (Enterococcus sp.; inoculum 5×10^5 CFU/mL): >64 µg/mL | MIC Enterococcus faecalis (GC 4552) (Enterococcus sp.; inoculum 5×10^5 CFU/mL): >64 µg/mL | MIC Enterococcus faecalis (GC 4553) (Enterococcus sp.; inoculum 5×10^5 CFU/mL): >64 µg/mL | MIC Enterococcus faecalis (GC 4554) (Enterococcus sp.; inoculum 5×10^5 CFU/mL): >64 µg/mL | MIC Enterococcus faecium (GC 4556) (Enterococcus sp.; inoculum 5×10^5 CFU/mL): >64 µg/mL | MIC Enterococcus faecium (GC 4557) (Enterococcus sp.; inoculum 5×10^5 CFU/mL): 32 µg/mL (≈ 21.7 µM) | MIC Enterococcus avium (GC 4558) (Enterococcus sp.; inoculum 5×10^5 CFU/mL): >64 µg/mL | MIC Enterococcus faecalis (GC 6189) (Enterococcus sp.; inoculum 5×10^5 CFU/mL): >64 µg/mL | MIC Enterococcus faecalis (ATCC 29212) (Enterococcus sp.): >64 µg/mL | MIC Enterococcus faecalis (GC 2242) (Enterococcus sp.): >64 µg/mL | MIC Enterococcus faecium (GC 2243) (Enterococcus sp.): >64 µg/mL | MIC Enterococcus faecalis (GC 2691) (Enterococcus sp.): >64 µg/mL | MIC Enterococcus faecalis (GC 3059) (Enterococcus sp.): >64 µg/mL | MIC Enterococcus faecalis (GC 4552) (Enterococcus sp.): >64 µg/mL | MIC Enterococcus faecalis (GC 4553) (Enterococcus sp.): >64 µg/mL | MIC Enterococcus faecalis (GC 4554) (Enterococcus sp.): >64 µg/mL | MIC Enterococcus faecium (GC 4556) (Enterococcus sp.): >64 µg/mL | MIC Enterococcus faecium (GC 4557) (Enterococcus sp.): 32 µg/mL (≈ 21.7 µM) | MIC Enterococcus avium (GC 4558) (Enterococcus sp.): >64 µg/mL | MIC Enterococcus faecalis (GC 6189) (Enterococcus sp.): >64 µg/mL | MIC Escherichia coli (ATCC 25922) (Escherichia coli; strain ATCC 25922, 18 hours at 35° C.): >64 µg/mL | MIC Escherichia coli (GC 4559) (Escherichia coli; strain GC 4559, 18 hours at 35° C.): >64 µg/mL | MIC Escherichia coli (GC 4560) (Escherichia coli; strain GC 4560, 18 hours at 35° C.): 8 µg/mL (≈ 5.43 µM) | MIC Staphylococcus aureus (GC 1131) (Staphylococcus sp.; inoculum 5×10^5 CFU/mL): 32 µg/mL (≈ 21.7 µM) | MIC Staphylococcus aureus (ATCC 29213) (Staphylococcus sp.; strain ATCC 29213): 32 µg/mL (≈ 21.7 µM) | MIC Staphylococcus aureus (GC 1131) (Staphylococcus sp.): 32 µg/mL (≈ 21.7 µM) | MIC Staphylococcus aureus (GC 3051) (Staphylococcus sp.; strain GC 3051): 32 µg/mL (≈ 21.7 µM) | MIC Staphylococcus aureus (GC 3053) (Staphylococcus sp.; strain GC 3053): >64 µg/mL | MIC Staphylococcus aureus (GC 4541) (Staphylococcus sp.; strain GC 4541): 32 µg/mL (≈ 21.7 µM) | MIC Staphylococcus aureus (GC 4542) (Staphylococcus sp.; strain GC 4542): 32 µg/mL (≈ 21.7 µM) | MIC Staphylococcus aureus-SMITH (GC 4543) (Staphylococcus sp.; strain GC 4543): 32 µg/mL (≈ 21.7 µM) | MIC Staphylococcus aureus (GC 4544) (Staphylococcus sp.; strain GC 4544): 32 µg/mL (≈ 21.7 µM) | MIC Staphylococcus aureus (GC 4545) (Staphylococcus sp.; strain GC 4545): 32 µg/mL (≈ 21.7 µM) | MIC Staphylococcus haemolyticus (GC 4546) (Staphylococcus sp.; strain GC 4546): 32 µg/mL (≈ 21.7 µM) | MIC Coagulase Negative Staphylococcus (GC 4547) (Staphylococcus sp.; strain GC 4547): 32 µg/mL (≈ 21.7 µM) | MIC Coagulase Negative Staphylococcus (GC 4548) (Staphylococcus sp.; strain GC 4548): 32 µg/mL (≈ 21.7 µM) | MIC Coagulase Negative Staphylococcus (GC 4549) (Staphylococcus sp.; strain GC 4549): 16 µg/mL (≈ 10.9 µM) | MIC Coagulase Negative Staphylococcus (GC 4551) (Staphylococcus sp.; strain GC 4551): >64 µg/mL | MIC Coagulase Negative Staphylococcus (GC 6257) (Staphylococcus sp.; strain GC 6257): 8 µg/mL (≈ 5.43 µM) | MIC Streptococcus pneumoniae (ATCC 6301) (Streptococcus sp.; inoculum 5×10^5 CFU/mL): 8 µg/mL (≈ 5.43 µM) | MIC Streptococcus pneumoniae (GC 1894) (Streptococcus sp.; inoculum 5×10^5 CFU/mL): 8 µg/mL (≈ 5.43 µM) | MIC Streptococcus pyogenes (GC 4563) (Streptococcus sp.; inoculum 5×10^5 CFU/mL): 16 µg/mL (≈ 10.9 µM) | MIC Streptococcus agalactiae (GC 4564) (Streptococcus sp.; inoculum 5×10^5 CFU/mL): 32 µg/mL (≈ 21.7 µM) | MIC Streptococcus pneumoniae (GC 4565) (Streptococcus sp.; inoculum 5×10^5 CFU/mL): 8 µg/mL (≈ 5.43 µM) | MIC Streptococcus pneumoniae (ATCC 6301) (Streptococcus sp.): 8 µg/mL (≈ 5.43 µM) | MIC Streptococcus pneumoniae (GC 1894) (Streptococcus sp.): 8 µg/mL (≈ 5.43 µM) | MIC Streptococcus pyogenes (GC 4563) (Streptococcus sp.): 16 µg/mL (≈ 10.9 µM) | MIC Streptococcus agalactiae (GC 4564) (Streptococcus sp.): 32 µg/mL (≈ 21.7 µM) | MIC Streptococcus pneumoniae (GC 4565) (Streptococcus sp.): 8 µg/mL (≈ 5.43 µM)
